Measurements reported in patent publication US20140005165A1, “SUBSTITUTED 3-AZABICYCLO[3.1.0]HEXANE DERIVATIVES USEFUL AS CCR2 ANTAGONISTS” (priority 2011, published 2014).

Target: T1, human CCR2 (Homo sapiens, UniProt P41597)
T1 construct: expressed in transfected cells; host or cells: Ba/F3 cells (membrane preparation)
Assay: CCR2 Membrane Binding Assay (SPA radio-ligand binding, 125I-rhMCP-1)
Conditions: membranes from Ba/F3 cells transfected with human CCR2, 0.03 nM 125I-rhMCP-1
Description: The radio-ligand binding assay was done using scintillation proximity assay (SPA) technology. Briefly, membranes (1 μg per assay point) from Ba/F3 cells transfected with human CCR2, and wheat germ agglutinin-coated SPA beads (80 μg per point; Amersham, Arlington Heights, Ill.), were pre-incubated for 30 min at room temperature in CCR2 buffer (50 mM HEPES (pH=7.4), 10 mM MgCl2, 10 mM NaCl, 1 mM CaCL2, 0.1% BSA, 10 μg/ml Saponin). At this point pre-bound SPA bead, membrane complex was incubated at room temperature for 4 h with varying concentrations of punitive CCR2 antagonists (in 1% DMSO, final) and 0.03 nM ^125I-rhMCP-1 in CCR2Buffer (S.A. 2200 Ci/mmol, PerkinElmer Life and Analytical Science, Boston, Mass.; NEX332). Binding competition was measured using a 1450 Microbeta Trilux counter (Wallac, Gaithersburg, Md.). Binding constants (IC50 and slope) were calculated using GraphPad Prism software (GraphPad Software, Inc., La Jolla Calif.).

T1 sequence (P41597 whole entry): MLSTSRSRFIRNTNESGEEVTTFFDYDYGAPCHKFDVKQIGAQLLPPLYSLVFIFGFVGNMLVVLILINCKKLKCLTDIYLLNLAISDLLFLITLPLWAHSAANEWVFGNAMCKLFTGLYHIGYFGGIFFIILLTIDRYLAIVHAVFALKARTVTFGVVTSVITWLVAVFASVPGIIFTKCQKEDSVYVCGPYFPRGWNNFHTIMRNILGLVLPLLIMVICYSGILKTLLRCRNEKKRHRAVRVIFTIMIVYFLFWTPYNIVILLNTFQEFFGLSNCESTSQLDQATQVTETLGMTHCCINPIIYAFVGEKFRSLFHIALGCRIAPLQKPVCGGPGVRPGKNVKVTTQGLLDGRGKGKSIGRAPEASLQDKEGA

## O=C([C@H]1[C@@H]2CN([C@H]3CC[C@@H](c4ccccc4)CC3)C[C@@H]21)N1CC(Oc2ccc(Cl)c(Cl)c2)C1 [Compound 77]
Class symbols
  IC50: 51 to 200 nM

## CC1CCC(N2C[C@@H]3[C@H](C2)[C@H]3C(=O)NCC(=O)Nc2cccc(C(F)(F)F)c2)C1 (stereo partly shown) [Compound 19]
Class symbols
  IC50: 201 to 700 nM

## O=C(CNC(=O)[C@H]1[C@@H]2CN(C3CC(CO)C3)C[C@@H]21)Nc1cccc(C(F)(F)F)c1 (stereo partly shown) [Compound 23]
Class symbols
  IC50: 201 to 700 nM

## CCC(C)N1C[C@@H]2[C@H](C1)[C@H]2C(=O)NCC(=O)Nc1cccc(C(F)(F)F)c1 (stereo partly shown) [Compound 9]
Class symbols
  IC50: 51 to 200 nM

## CC(N1C[C@@H]2[C@H](C1)[C@H]2C(=O)NCC(=O)Nc1cccc(C(F)(F)F)c1)C1(C)CC1 (stereo partly shown) [Compound 20]
Class symbols
  IC50 (nM): D (compounds with IC50 values between 701 nM and 110 nM are designated as D class compounds)

## O=C(CNC(=O)[C@H]1[C@@H]2CN([C@H]3CC[C@@H](c4cccs4)CC3)C[C@@H]21)Nc1cccc(C(F)(F)F)c1 [Compound 98]
Class symbols
  IC50: < 50 nM

## O=C(N[C@@H]1CCN(c2nccc(C(F)(F)F)n2)C1)[C@H]1[C@@H]2CN([C@H]3CC[C@@H](c4ccccc4)CC3)C[C@@H]21 [Compound 112]
Class symbols
  IC50: 201 to 700 nM

## O=C(CNC(=O)[C@H]1[C@@H]2CN([C@H]3CC[C@H](NC(=O)OCc4ccccc4)CC3)C[C@@H]21)Nc1cccc(C(F)(F)F)c1 [Compound 155]
Class symbols
  IC50: 201 to 700 nM

## O=C(CNC(=O)[C@H]1[C@@H]2CN(CC3CC3)C[C@@H]21)Nc1cccc(C(F)(F)F)c1 [Compound 158]
Class symbols
  IC50 (nM): D (compounds with IC50 values between 701 nM and 110 nM are designated as D class compounds)

## O=C([C@H]1[C@@H]2CN([C@H]3CC[C@@H](c4ccccc4)CC3)C[C@@H]21)N1CC[C@@H](Nc2nccc(C(F)(F)F)n2)C1 [Compound 6]
Class symbols
  IC50: 51 to 200 nM

## N#Cc1cccc(C2CCN(C(=O)[C@H]3[C@@H]4CN([C@H]5CC[C@@H](c6ccccc6)CC5)C[C@@H]43)C2)c1 (stereo partly shown) [Compound 40]
Class symbols
  IC50: 51 to 200 nM

## COc1ccc(C[C@H]2CC[C@@H](N3C[C@@H]4[C@H](C3)[C@H]4C(=O)NCC(=O)Nc3cccc(C(F)(F)F)c3)CC2)cc1 [Compound 145]
Class symbols
  IC50: 51 to 200 nM

## O=C(CNC(=O)[C@H]1[C@@H]2CN(C3CCCC3)C[C@@H]21)Nc1cccc(C(F)(F)F)c1 [Compound 11]
Class symbols
  IC50: 51 to 200 nM

## CN(C(=O)[C@H]1[C@@H]2CN([C@H]3CC[C@@H](c4ccccc4)CC3)C[C@@H]21)[C@H]1CCN(c2ncc(C(F)(F)F)cn2)C1 [Compound 129]
Class symbols
  IC50: 201 to 700 nM

## O=C(NCCc1cc(C(F)(F)F)cc(C(F)(F)F)c1)[C@H]1[C@@H]2CN([C@H]3CC[C@@H](c4ccccc4)CC3)C[C@@H]21 [Compound 135]
Class symbols
  IC50: 201 to 700 nM

## O=C(CNC(=O)[C@H]1[C@@H]2CN(C3CC[C@H](c4ccccc4)C3)C[C@@H]21)Nc1cccc(C(F)(F)F)c1 (stereo partly shown) [Compound 64]
Class symbols
  IC50: 51 to 200 nM

## O=C(CNC(=O)[C@H]1[C@@H]2CN([C@H]3CC[C@@H](c4cnc(O)nc4)CC3)C[C@@H]21)Nc1cccc(C(F)(F)F)c1 [Compound 118]
Class symbols
  IC50: 201 to 700 nM

## COC1CCC(N2C[C@@H]3[C@H](C2)[C@H]3C(=O)NCC(=O)Nc2cccc(C(F)(F)F)c2)CC1 (stereo partly shown) [Compound 39]
Class symbols
  IC50 (nM): D (compounds with IC50 values between 701 nM and 110 nM are designated as D class compounds)

## O=C(NC1Cc2ccc(Br)cc2C1)[C@H]1[C@@H]2CN([C@H]3CC[C@@H](c4ccccc4)CC3)C[C@@H]21 (stereo partly shown) [Compound 68]
Class symbols
  IC50: 51 to 200 nM

## O=C(NCCc1cccc(C(F)(F)F)c1)C1[C@H]2CN(C3CCCC3)C[C@@H]12 (stereo partly shown) [Compound 46]
Class symbols
  IC50: 201 to 700 nM

## O=C(CNC(=O)[C@H]1[C@@H]2CN(C3CC[C@@H](c4ccccc4)C3)C[C@@H]21)Nc1cccc(C(F)(F)F)c1 (stereo partly shown) [Compound 65]
Class symbols
  IC50: 201 to 700 nM

## Cn1cc([C@H]2CC[C@@H](N3C[C@@H]4[C@H](C3)[C@H]4C(=O)NCC(=O)Nc3cccc(C(F)(F)F)c3)CC2)cn1 [Compound 94]
4 h room temperature
  IC50: 13.6 nM

## O=C([C@H]1[C@@H]2CN([C@H]3CC[C@@H](c4ccccc4)CC3)C[C@@H]21)N1CCN(c2cccc(C(F)(F)F)c2)C(=O)C1 [Compound 127]
Class symbols
  IC50 (nM): D (compounds with IC50 values between 701 nM and 110 nM are designated as D class compounds)

## O=C(CNC(=O)[C@H]1[C@@H]2CN([C@H]3CC[C@@H](c4cccnc4)CC3)C[C@@H]21)Nc1cccc(C(F)(F)F)c1 [Compound 82]
4 h room temperature
  IC50: 4 nM

## CC(C)C1CCC(N2C[C@@H]3[C@H](C2)[C@H]3C(=O)NCC(=O)Nc2cccc(C(F)(F)F)c2)CC1 (stereo partly shown) [Compound 45]
Class symbols
  IC50: 201 to 700 nM

## O=C(NCCc1cccc(C(F)(F)F)c1)C1[C@H]2CN(C3CCCCC3)C[C@@H]12 (stereo partly shown) [Compound 1]
Class symbols
  IC50: 51 to 200 nM

## O=C(CNC(=O)[C@H]1[C@@H]2CN([C@H]3CC[C@@H](c4ccsc4)CC3)C[C@@H]21)Nc1cccc(C(F)(F)F)c1 [Compound 97]
4 h room temperature
  IC50: 3.7 nM

## O=C([C@H]1[C@@H]2CN([C@H]3CC[C@@H](c4ccccc4)CC3)C[C@@H]21)N1CC(Oc2ccccc2)C1 [Compound 25]
Class symbols
  IC50 (nM): D (compounds with IC50 values between 701 nM and 110 nM are designated as D class compounds)

## O=C(CNC(=O)[C@H]1[C@@H]2CN([C@H]3CC[C@H](c4ccc(O)cc4)CC3)C[C@@H]21)Nc1cccc(C(F)(F)F)c1 [Compound 115]
Class symbols
  IC50: < 50 nM

## O=C(CNC(=O)[C@H]1[C@@H]2CN(C3CC3)C[C@@H]21)Nc1cccc(C(F)(F)F)c1 [Compound 78]
Class symbols
  IC50: 201 to 700 nM

## O=C(CNC(=O)[C@H]1[C@@H]2CN([C@H]3CC[C@@H](NS(=O)(=O)C4CC4)CC3)C[C@@H]21)Nc1cccc(C(F)(F)F)c1 [Compound 142]
Class symbols
  IC50 (nM): D (compounds with IC50 values between 701 nM and 110 nM are designated as D class compounds)

## O=C(CNC(=O)[C@H]1[C@@H]2CN([C@H]3CC[C@@H](c4ccccn4)CC3)C[C@@H]21)Nc1cccc(C(F)(F)F)c1 [Compound 81]
4 h room temperature
  IC50: 1.8 nM

## O=C(CNC(=O)[C@H]1[C@@H]2CN([C@H]3CC[C@H](c4ccncc4)CC3)C[C@@H]21)Nc1cccc(C(F)(F)F)c1 [Compound 85]
Class symbols
  IC50: 201 to 700 nM

## O=C(NCCc1cc(F)cc(C(F)(F)F)c1)[C@H]1[C@@H]2CN([C@H]3CC[C@@H](c4ccccc4)CC3)C[C@@H]21 [Compound 67]
Class symbols
  IC50: 51 to 200 nM

## CC(C)(C)C1CCC(N2C[C@@H]3[C@H](C2)[C@H]3C(=O)NCC(=O)Nc2cccc(C(F)(F)F)c2)CC1 (stereo partly shown) [Compound 54]
Class symbols
  IC50 (nM): D (compounds with IC50 values between 701 nM and 110 nM are designated as D class compounds)

## O=C(CNC(=O)[C@H]1[C@@H]2CN([C@H]3CC[C@@H](c4cncnc4)CC3)C[C@@H]21)Nc1cccc(C(F)(F)F)c1 [Compound 91]
Class symbols
  IC50: < 50 nM

## COc1ncc([C@H]2CC[C@@H](N3C[C@@H]4[C@H](C3)[C@H]4C(=O)NCC(=O)Nc3cccc(C(F)(F)F)c3)CC2)c(OC)n1 [Compound 153]
4 h room temperature
  IC50: 4.5 nM

## CCCC(C)N1C[C@@H]2[C@H](C1)[C@H]2C(=O)NCC(=O)Nc1cccc(C(F)(F)F)c1 (stereo partly shown) [Compound 14]
Class symbols
  IC50 (nM): D (compounds with IC50 values between 701 nM and 110 nM are designated as D class compounds)

## CC1CCCCC1N1C[C@@H]2[C@H](C1)[C@H]2C(=O)NCC(=O)Nc1cccc(C(F)(F)F)c1 (stereo partly shown) [Compound 31]
Class symbols
  IC50: 51 to 200 nM

## CC1CCC(N2C[C@@H]3[C@H](C2)[C@H]3C(=O)NCC(=O)Nc2cccc(C(F)(F)F)c2)CC1 (stereo partly shown) [Compound 30]
Class symbols
  IC50: 51 to 200 nM
